Laboratory results: patent US8541407B2 (ArQule, Inc., priority 2010, dated 2013)

Biological target: AKT1 (Homo sapiens (Human), UniProt P31749)
Assay: Inactive Akt Alpha Screen Assay
Settings: non *labeled: Akt Alpha Screen assay; read-out: AKT1 biochemical assay, IC50
Experimental: AKT1 activity was assayed using the GSK3-derived biotinylated peptide substrate, crosstide (biotin-[…]), and AlphaScreen™ (Amplified Luminescent Proximity Homogeneous Assay) technology. AKT1 activation was achieved by the addition of the activating kinases PDK1 and MAPKAPK2, lipid vesicles, and ATP. The extent of peptide phosphorylation was determined using a phospho-AKT substrate antibody and acceptor beads conjugated to Protein A and donor beads conjugated to streptavidin that bind to the biotin on the peptide. Excitation of the donor beads converted ambient oxygen to excited singlet oxygen which, when in close proximity to acceptor beads, reacted with acceptor beads resulting in signal amplification. […] The plates were incubated for 30 minutes at room temperature, and then stopped in the dark by the addition of 10 μL stop/detection mixture prepared in assay buffer containing EDTA, AlphaScreen™ Streptavidin Donor and Protein A Acceptor beads, and phospho-AKT substrate antibody for final concentrations of 10 mM EDTA, 500 ng/well of both AlphaScreen™ Streptavidin Donor beads and Protein A Acceptor beads, and phospho-AKT substrate antibody at a final dilution of 1:350. Assay plates were incubated for 90 minutes at room temperature in the dark, and the plates were read on a Perkin Elmer Envision Multilabel plate reader (excitation wavelength: […], emission wavelength: 570 nm). […] Envision Instrument Settings: • Instrument: Perkin Elmer Envision • Plate: 96 well • Program Name: • Excitation: Ex Top • Mirror: General Dual—Slot 2 • Excitation Filter: CFP430 Ex.

Chain of AKT1 (P31749 whole entry): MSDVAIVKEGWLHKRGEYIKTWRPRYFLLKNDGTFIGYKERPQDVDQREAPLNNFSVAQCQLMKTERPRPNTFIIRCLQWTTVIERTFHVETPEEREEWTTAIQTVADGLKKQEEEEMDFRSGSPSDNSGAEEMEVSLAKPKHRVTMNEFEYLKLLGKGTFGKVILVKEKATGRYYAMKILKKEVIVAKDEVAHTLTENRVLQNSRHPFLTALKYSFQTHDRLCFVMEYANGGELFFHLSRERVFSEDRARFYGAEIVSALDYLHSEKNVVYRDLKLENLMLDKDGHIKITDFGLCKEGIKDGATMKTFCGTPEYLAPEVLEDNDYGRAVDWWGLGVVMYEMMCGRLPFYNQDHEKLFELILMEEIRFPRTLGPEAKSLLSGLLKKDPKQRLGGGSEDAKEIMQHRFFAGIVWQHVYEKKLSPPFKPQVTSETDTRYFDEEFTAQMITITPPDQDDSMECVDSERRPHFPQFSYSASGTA

O=C(Nc1ccc(-c2nnc3n2-c2cccnc2Nc2ccccc2-3)cc1)c1ccc(F)c(C(F)(F)F)c1 [Example 46, N-(4-(9H-benzo[f]pyrido[2,3-b][1,2,4]triazolo[4,3-d][1,4]diazepin-3-yl)phenyl)-4-fluoro-3-(trifluoromethyl)benzamide]
IC50: 5300 nM

O=C(Nc1ccc(-c2nnc3n2-c2cccnc2Nc2ccccc2-3)cc1)c1ccc2c(c1)OCO2 [Example 47, N-(4-(9H-benzo[f]pyrido[2,3-b][1,2,4]triazolo[4,3-d][1,4]diazepin-3-yl)phenyl)benzo[d][1,3]dioxole-5-carboxamide]
IC50: 53 nM

Cc1cc(C(=O)Nc2ccc(-c3nnc4n3-c3cccnc3Nc3ccccc3-4)cc2)no1 [Example 48, N-(4-(9H-benzo[f]pyrido[2,3-b][1,2,4]triazolo[4,3-d][1,4]diazepin-3-yl)phenyl)-5-methylisoxazole-3-carboxamide]
IC50: 120 nM

O=C(Cc1ccccc1)Nc1ccc(-c2nnc3n2-c2cccnc2Nc2ccccc2-3)cc1 [Example 49, N-(4-(9H-benzo[f]pyrido[2,3-b][1,2,4]triazolo[4,3-d][1,4]diazepin-3-yl)phenyl)-2-phenylacetamide]
IC50: 240 nM

O=C(Nc1ccc(-c2nnc3n2-c2cccnc2Nc2ccccc2-3)cc1)c1ccco1 [Example 50, N-(4-(9H-benzo[f]pyrido[2,3-b][1,2,4]triazolo[4,3-d][1,4]diazepin-3-yl)phenyl)furan-2-carboxamide]
IC50: 130 nM

O=C(Nc1ccc(-c2nnc3n2-c2cccnc2Nc2ccccc2-3)cc1)c1ccccc1F [Example 51, N-(4-(9H-benzo[f]pyrido[2,3-b][1,2,4]triazolo[4,3-d][1,4]diazepin-3-yl)phenyl)-2-fluorobenzamide]
IC50: 110 nM

O=C(Nc1ccc(-c2nnc3n2-c2cccnc2Nc2ccccc2-3)cc1)c1ccc(C(F)(F)F)cc1 [Example 52, N-(4-(9H-benzo[f]pyrido[2,3-b][1,2,4]triazolo[4,3-d][1,4]diazepin-3-yl)phenyl)-4-(trifluoromethyl)benzamide]
IC50: 650 nM

COCC(=O)Nc1ccc(-c2nnc3n2-c2cccnc2Nc2ccccc2-3)cc1 [Example 53, N-(4-(9H-benzo[f]pyrido[2,3-b][1,2,4]triazolo[4,3-d][1,4]diazepin-3-yl)phenyl)-2-methoxyacetamide]
IC50: 1500 nM

O=C(CCc1ccccc1)Nc1ccc(-c2nnc3n2-c2cccnc2Nc2ccccc2-3)cc1 [Example 54, N-(4-(9H-benzo[f]pyrido[2,3-b][1,2,4]triazolo[4,3-d][1,4]diazepin-3-yl)phenyl)-3-phenylpropanamide]
IC50: 1800 nM

O=C(Nc1ccc(-c2nnc3n2-c2cccnc2Nc2ccccc2-3)cc1)c1cnc2ccccc2n1 [Example 55, N-(4-(9H-benzo[f]pyrido[2,3-b][1,2,4]triazolo[4,3-d][1,4]diazepin-3-yl)phenyl)quinoxaline-2-carboxamide]
IC50: 160 nM

O=C(Nc1ccc(-c2nnc3n2-c2cccnc2Nc2ccccc2-3)cc1)C1CCC1 [Example 57, N-(4-(9H-benzo[f]pyrido[2,3-b][1,2,4]triazolo[4,3-d][1,4]diazepin-3-yl)phenyl)cyclobutanecarboxamide]
IC50: 700 nM

O=C(Nc1ccc(-c2nnc3n2-c2cccnc2Nc2ccccc2-3)cc1)c1ccncc1 [Example 58, N-(4-(9H-benzo[f]pyrido[2,3-b][1,2,4]triazolo[4,3-d][1,4]diazepin-3-yl)phenyl)isonicotinamide]
IC50: 350 nM

N#Cc1cccc(C(=O)Nc2ccc(-c3nnc4n3-c3cccnc3Nc3ccccc3-4)cc2)c1 [Example 60, N-(4-(9H-benzo[f]pyrido[2,3-b][1,2,4]triazolo[4,3-d][1,4]diazepin-3-yl)phenyl)-3-cyanobenzamide]
IC50: 76 nM

O=C(Nc1ccc(-c2nnc3n2-c2cccnc2Nc2ccccc2-3)cc1)c1ccc(-c2ccccc2)cc1 [Example 61, N-(4-(9H-benzo[f]pyrido[2,3-b][1,2,4]triazolo[4,3-d][1,4]diazepin-3-yl)phenyl)-[1,1′-biphenyl]-4-carboxamide]
IC50: 780 nM

NCc1ccc(-c2nnc3n2-c2cccnc2Nc2ccccc2-3)cc1 [Example 62, (4-(9H-benzo[f]pyrido[2,3-b][1,2,4]triazolo[4,3-d][1,4]diazepin-3-yl)phenyl)methanamine]
IC50: 690 nM

CS(=O)(=O)OCc1ccc(-c2nnc3n2-c2cccnc2Nc2ccccc2-3)cc1 [Example 64, 4-(9H-benzo[f]pyrido[2,3-b][1,2,4]triazolo[4,3-d][1,4]diazepin-3-yl)benzyl methanesulfonate]
IC50: 490 nM

c1ccc2c(c1)Nc1ncccc1-n1c(-c3ccc(CN4CCCC4)cc3)nnc1-2 [Example 65, 3-(4-(pyrrolidin-1-ylmethyl)phenyl)-9H-benzo[f]pyrido[2,3-b][1,2,4]triazolo[4,3-d][1,4]diazepine]
IC50: 4300 nM

c1ccc(CNCc2ccc(-c3nnc4n3-c3cccnc3Nc3ccccc3-4)cc2)cc1 [Example 66, N-(4-(9H-benzo[f]pyrido[2,3-b][1,2,4]triazolo[4,3-d][1,4]diazepin-3-yl)benzyl)-1-phenylmethanamine]
IC50: 1900 nM

Fc1ccccc1N1CCN(Cc2ccc(-c3nnc4n3-c3cccnc3Nc3ccccc3-4)cc2)CC1 [Example 67, 3-(4-((4-(2-fluorophenyl)piperazin-1-yl)methyl)phenyl)-9H-benzo[f]pyrido[2,3-b][1,2,4]triazolo[4,3-d][1,4]diazepine]
IC50: 2800 nM

CC(C)CCNCc1ccc(-c2nnc3n2-c2cccnc2Nc2ccccc2-3)cc1 [Example 68, N-(4-(9H-benzo[f]pyrido[2,3-b][1,2,4]triazolo[4,3-d][1,4]diazepin-3-yl)benzyl)-3-methylbutan-1-amine]
IC50: 4400 nM

c1ccc2c(c1)Nc1ncccc1-n1c(-c3ccc(CNC4CCC4)cc3)nnc1-2 [Example 69, N-(4-(9H-benzo[f]pyrido[2,3-b][1,2,4]triazolo[4,3-d][1,4]diazepin-3-yl)benzyl)cyclobutanamine]
IC50: 4500 nM

CCN(Cc1ccncc1)Cc1ccc(-c2nnc3n2-c2cccnc2Nc2ccccc2-3)cc1 [Example 70, N-(4-(9H-benzo[f]pyrido[2,3-b][1,2,4]triazolo[4,3-d][1,4]diazepin-3-yl)benzyl)-N-(pyridin-4-ylmethyl)ethanamine]
IC50: 2100 nM

CC(C)CNCc1ccc(-c2nnc3n2-c2cccnc2Nc2ccccc2-3)cc1 [Example 71, N-(4-(9H-benzo[f]pyrido[2,3-b][1,2,4]triazolo[4,3-d][1,4]diazepin-3-yl)benzyl)-2-methylpropan-1-amine]
IC50: 6400 nM

CN(C)C(=O)CN1CCN(Cc2ccc(-c3nnc4n3-c3cccnc3Nc3ccccc3-4)cc2)CC1 [Example 72, 2-(4-(4-(9H-benzo[f]pyrido[2,3-b][1,2,4]triazolo[4,3-d][1,4]diazepin-3-yl)benzyl)piperazin-1-yl)-N,N-dimethylacetamide]
IC50: 8000 nM

COCCNCc1ccc(-c2nnc3n2-c2cccnc2Nc2ccccc2-3)cc1 [Example 73, N-(4-(9H-benzo[f]pyrido[2,3-b][1,2,4]triazolo[4,3-d][1,4]diazepin-3-yl)benzyl)-2-methoxyethanamine]
IC50: 4600 nM

c1ccc2c(c1)Nc1ncccc1-n1c(-c3ccc(CN4CCN(Cc5ccncc5)CC4)cc3)nnc1-2 [Example 74, 3-(4-((4-(pyridin-4-ylmethyl)piperazin-1-yl)methyl)phenyl)-9H-benzo[f]pyrido[2,3-b][1,2,4]triazolo[4,3-d][1,4]diazepine]
IC50: 5200 nM

CN(CCc1ccccn1)Cc1ccc(-c2nnc3n2-c2cccnc2Nc2ccccc2-3)cc1 [Example 75, N-(4-(9H-benzo[f]pyrido[2,3-b][1,2,4]triazolo[4,3-d][1,4]diazepin-3-yl)benzyl)-N-methyl-2-(pyridin-2-yl)ethanamine]
IC50: 1100 nM

OCC1CCN(Cc2ccc(-c3nnc4n3-c3cccnc3Nc3ccccc3-4)cc2)CC1 [Example 76, (1-(4-(9H-benzo[f]pyrido[2,3-b][1,2,4]triazolo[4,3-d][1,4]diazepin-3-yl)benzyl)piperidin-4-yl)methanol]
IC50: 8300 nM

COCCN(C)Cc1ccc(-c2nnc3n2-c2cccnc2Nc2ccccc2-3)cc1 [Example 77, N-(4-(9H-benzo[f]pyrido[2,3-b][1,2,4]triazolo[4,3-d][1,4]diazepin-3-yl)benzyl)-2-methoxy-N-methylethanamine]
IC50: 4700 nM

O=C1CCCN1CCCNCc1ccc(-c2nnc3n2-c2cccnc2Nc2ccccc2-3)cc1 [Example 78, 1-(3-((4-(9H-benzo[f]pyrido[2,3-b][1,2,4]triazolo[4,3-d][1,4]diazepin-3-yl)benzyl)amino)propyl)pyrrolidin-2-one]
IC50: 4400 nM

CN(CCc1ccccc1)Cc1ccc(-c2nnc3n2-c2cccnc2Nc2ccccc2-3)cc1 [Example 79, N-(4-(9H-benzo[f]pyrido[2,3-b][1,2,4]triazolo[4,3-d][1,4]diazepin-3-yl)benzyl)-N-methyl-2-phenylethanamine]
IC50: 780 nM

OC1(c2ccccc2)CCN(Cc2ccc(-c3nnc4n3-c3cccnc3Nc3ccccc3-4)cc2)CC1 [Example 80, 1-(4-(9H-benzo[f]pyrido[2,3-b][1,2,4]triazolo[4,3-d][1,4]diazepin-3-yl)benzyl)-4-phenylpiperidin-4-ol]
IC50: 1900 nM
